# Experimental data from patent publication US5618560A, “Controlled release erodible composition” (BM Research A/S, priority 1988, dated 1997).
# Assay: clinical
# Design: species or system patients (human)
# Conditions: human, in vivo, iv, 5 mg/kg, Serum half-life
# Description: The in vivo release of theophylline from this composition was tested in six patients, 3 males and 3 females, aged 18-42 years (mean age 30 years), weighing from 63 to 85 kg (mean weight 66 kg), all of whom were diagnosed as having bronchial asthma.
# The first dose was given to the patients before breakfast (i.e. in the fasting state) as two units of the composition (340 mg theophylline) together with 100 ml of liquid. […] Following the oral dose, venous blood samples were drawn at 0, 1, 2, 3, 4, 6, 8, 10, 12, 14, 16 and 24 hours. Serum samples were drawn at 0, 15 min., 30 min., 60 min., 90 min., and 2, 3, 5, 7, 9 and 11 hours after the i.v. dose. The serum portion of the blood specimen was immediately frozen at -20° C. and kept frozen until analyzed 2 weeks later. The amount of theophylline in the serum was assayed by HPLC with an accuracy of ±5%.
compound,measurement,value
Cn1c(=O)c2[nH]cnc2n(C)c1=O [theophylline],half-life,6 h
